Test results published in US6413521B1, “Helminth parasite antigen with aminopeptidase-like activity” (The Barbraham Institute, priority 1993, dated 2002).

Assays:
Con A Oo12 ApA activity = test: Con A O12 aminopeptidase inhibition assay, ApA (α-glutamic p-nitroanilide); assay type: biochemical, Ostertagia ostertagi
Method: (§1) The effect of various protease inhibitors on Oo12 activity was assayed and included amastatin (aminopeptidase inhibitor), actinonin (aminopeptidase inhibitor), bestatin (aminopeptidase inhibitor), EDTA (metallo-protease inhibitor), E64 (cysteine protease inhibitor), pepstatin (aspartic protease inhibitor), 1,10 phenanthroline (metallo-protease inhibitor) and 3,4-dichloroisocoumarin (DCI, serine protease inhibitor). 10 μl Con A Oo12 and 100 μl 50 mM Mops buffer, pH 7.0 was added to a microtitre plate well and 2-4 μl of enzyme inhibitor added, to give a final concentration of 0.5 mM and 1 mM actinonin, 50 μM and 100 μM bestatin, 1 mM and 15 mM EDTA, 50 μM and 100 μM E64, 10 and 50 μM pepstatin, 1 mM and 10 mM 1,10 phenanthroline, 100 μM and 500 μM DCI. The plate was preincubated at 37° C. for 20-28 minutes and then assayed for ApM and ApA activity. 100 μl 2 mM leucine p-nitroanilide (ApM) or α-glutamic p-nitroanilide (ApA)/Mops was added per well and the optical density (OD) at 405 nm read using an Elisa plate reader. The plates were incubated at 37° C. for 45-48 minutes and the final OD reading was then taken. The OD change per minute per 10 μl sample was calculated. All assays were carried out in triplicate.

Con A Oo12 ApM activity = test: Con A O12 aminopeptidase inhibition assay, ApM (leucine p-nitroanilide); assay type: biochemical, Ostertagia ostertagi
Method: as §1

pig ApA and ApM = details: Aoyagi et al., J. Antibiotics 43(2); cited from earlier work
[1] = test system: O. ostertagi extracted residue (microsomal aminopeptidase); test: Trypsin digestion of O12: aminopeptidase activity released from extracted O. ostertagi residue; assay type: biochemical, Ostertagia ostertagi
Method: The residue obtained by centrifuging an homogenate of O. ostertagi in phosphate-buffered saline containing 0.02% sodium azide (PBSa) at 26,500 g (max) for 20 minutes in a swing-out rotor was re-extracted 3 times with PBSa, once with 1% polyoxyethylenesorbitan monolaurate (Tween 20) in PBSa and once with 50 mM 3-[N-morpholino]propane-sulphonic acid (MOPS) pH 8.0. The extracted residue was resuspended in 50 mM MOPS to give the equivalent of 0.17 g worm starting material per ml. Aliquots were digested with 0.5, 5, 50 or 500 μg TPCK-trypsin (trypsin treated with L-1-tosylamide-2-phenylethylchloromethyl ketone)/ml. Digestions were stopped by the addition of 10 mM DCI (15 μl/ml). […] Release of microsomal aminopeptidase A activity was negligible from pellets digested with 0-50 μg TPCK-trypsin/ml.
In another experiment material from 5 g O. ostertagi was digested twice with 50 μg/ml TPCK-trypsin. About 33% of the original amount of ApM was released after a second digest. […] Fractions were run on SDS-PAGE on a 6-16% minigel. After Coomassie blue staining, a band located around the 116,000 region, about the size expected from tryptic digestion of O12 was located in the fractions having the microsomal aminopeptidase activity.
A further 4.3 g of O. ostertagi was digested twice with TPCK-trypsin as above. The total aminopeptidase activity solubilised equalled 455 nmoles/min (Table 6). The high speed supernatants from the first and second digests (Trypsin HS1 & HS2) were buffer exchanged with ConA buffer A and run on a ConA sepharose column. The start material applied to the column was enriched for ApM activity, having a ratio of ApM:ApA of 18:1. All the ApM activity bound to the column (there was none in the wash-through); and 67% of this was recovered by elution with 0.5M methylglucopyranoside+0.2M methylmannoside. (Thus the use of two sugars in the eluting buffer more than doubled ApM recovery from the ConA column.) Fractions containing ApM activity were pooled, concentrated and subjected to gel filtration (on an FPLC Superdex 75 HR10/30 (Pharmacia) column). […]

Ostertagia ostertagi PHP = test: Protease digestion of Oo PhP, release of ApM activity; assay type: biochemical
Method: Method: Oo PhP was resuspended in 50 mM Mops buffer, pH 7.0 to give 0.1 mg pellet/ml. 50 μl aliquots were prewarmed at 37° C. for 39 minutes. 5 μl of either α-Chymotrypsin (Sigma type VII, 50 units/mg solid), Subtilisin (Sigma type VIII, 11.6 units/mg solid), Trypsin (Sigma, TPCK-treated type XIII, 9700 units/mg solid) or Thermolysin (Sigma, 37 units/mg solid dissolved in 1 mM KCl/2 mM CaCl) was added to give final protease concentrations of 5, 50, 500, 1000 and 2000 μg/ml. Aliquots containing chymotrypsin, trypsin or subtilisin were then incubated at 37° C. for 1 hour and protease activity inhibited by the addition of 1 μl 10 mM 3,4-dichloroisocoumarin (DCI). Aliquots containing thermolysin were incubated for 2 hours at 37° C. and activity inhibited by the addition of 1 μl 0.25M EDTA. Samples were spun at high speed on the airfuge at 20 psi for 20 minutes at room temperature. 5 μl samples were assay for ApM activity, using the microtitre plate method, over 29.6 minutes with methionine-pNA as substrate.

Oc12 = test: Blot of O. circumcincta extracts probed with biotinylated lectins; assay type: binding, Ostertagia circumcincta; details: electroblot of O.circumcincta extracts
Excerpt: The O.circumcincta extracts were electroblotted alongside a sample of H110D and probed with several biotinylated lectins to determine which, if any, would bind to Oc12. (FIG. 8). Biotinylated Concanavalin A, Ulex europaeus, Triticum vulgaris, Dolichos biflorus and Arachis hypogea lectins were used at dilutions optimised for use with H110D. […] U.europaeus lectin bound to several low molecular weight bands and may be used as an affinity chromatography column for removing low molecular weight protein from OcThHS. The wash-through fractions from such a column were applied to a Con A affinity column and the bound proteins were eluted with a gradient of 0-100% 0.5M methylglucoside (FIG. 9). Fractions were assayed for aminopeptidase-like activity (FIG. 10). Aminopeptidase M-like activity was present in the binding fractions.

Question: With `CC(C)C[C@@H](N)[C@H](O)C(=O)N[C@H](C(=O)N[C@H](C(=O)N[C@@H](CC(=O)O)C(=O)O)C(C)C)C(C)C` [Amaststin, amastatin] as the molecule, how does the α-Glu-pNA enzyme activity (Con A Oo12 ApA activity; inhibitor 10 μM) read?
Answer: 0.282 nmoles/min/10 μl ConA O12

Question: And the α-Glu-pNA enzyme inhibition (Con A Oo12 ApA activity; inhibitor 10 μM)?
Answer: 12%

Question: What about the α-Glu-pNA enzyme activity (Con A Oo12 ApA activity; inhibitor 50 μM) of the same molecule?
Answer: 0.205 nmoles/min/10 μl ConA O12

Question: And the α-Glu-pNA enzyme inhibition (Con A Oo12 ApA activity; inhibitor 50 μM)?
Answer: 36%

Question: What about the Leu-pNA enzyme activity (Con A Oo12 ApM activity; inhibitor 10 μM) of the same molecule?
Answer: 0.218 nmoles/min/10 μl ConA O12

Question: And the Leu-pNA enzyme inhibition (Con A Oo12 ApM activity; inhibitor 10 μM)?
Answer: 86%

Question: What about the Leu-pNA enzyme activity (Con A Oo12 ApM activity; inhibitor 50 μM) of the same molecule?
Answer: 0.074 nmoles/min/10 μl ConA O12

Question: And the Leu-pNA enzyme inhibition (Con A Oo12 ApM activity; inhibitor 50 μM)?
Answer: 95%

Question: What about the “inhibition of pig ApA versus ApM” value (pig ApA and ApM) of the same molecule?
Answer: better inhibitor of pig ApA than of ApM

B1: Trypsin: protease, Sigma, TPCK-treated type XIII, 9700 units/mg solid (protein, UniProt P00760 24-246, looked up)
Serine protease 1: IVGGYTCGANTVPYQVSLNSGYHFCGGSLINSQWVVSAAHCYKSGIQVRLGEDNINVVEGNEQFISASKSIVHPSYNSNTLNNDIMLIKLKSAASLNSRVASISLPTSCASAGTQCLISGWGNTKSSGTSYPDVLKCLKAPILSDSSCKSAYPGQITSNMFCAGYLEGGKDSCQGDSGGPVVCSGKLQGIVSWGSGCAQKNKPGVYTKVCNYVSWIKQTIASN
modifications: TPCK-treated
notes: protease, Sigma, TPCK-treated type XIII, 9700 units/mg solid
Question: What does the source list for B1?
Answer: release of microsomal aminopeptidase A activity ([1]; 0-50 μg TPCK-trypsin/ml): negligible; release of microsomal aminopeptidase M activity ([1]; 50 μg TPCK-trypsin (485 units), of 0.5, 5, 50 or 500 μg/ml): greatest amount; original amount of ApM released after a second digest ([1]; 5 g O. ostertagi digested twice with 50 μg/ml): About 33%; Aminopeptidase M activity released by protease digestion, Met-pNA (Ostertagia ostertagi PHP; 5 μg protease/0.1 mg PHP/ml): 0.118 nmoles/min/5 μl high speed supernatant; Aminopeptidase M activity released by protease digestion, Met-pNA (Ostertagia ostertagi PHP; 50 μg protease/0.1 mg PHP/ml): 0.246 nmoles/min/5 μl high speed supernatant; Aminopeptidase M activity released by protease digestion, Met-pNA (Ostertagia ostertagi PHP; 500 μg protease/0.1 mg PHP/ml): 1.075 nmoles/min/5 μl high speed supernatant; Aminopeptidase M activity released by protease digestion, Met-pNA (Ostertagia ostertagi PHP; 1000 μg protease/0.1 mg PHP/ml): 1.273 nmoles/min/5 μl high speed supernatant; Aminopeptidase M activity released by protease digestion, Met-pNA (Ostertagia ostertagi PHP; 2000 μg protease/0.1 mg PHP/ml): 1.068 nmoles/min/5 μl high speed supernatant

B2: D.biflorus lectin: biotinylated Dolichos biflorus lectin (protein)
chain: ANIQSFSFKNFNSPSFILQGDATVSSGKLQLTKVKENGIPTPSSLGRAFYSSPIQIYDKSTGAVASWATSFTVKISAPSKASFADGIAFALVPVGSEPRRNGGYLGVFDSDVYNNSAQTVAVEFDTFSNSGWDPSMKHIGIDVNSIKSIATVSWDLANGENAEILITYNAATSLLVASLVHPSRRTSYILSERVDITNELPEYVSVGFSATTGLSEGYIETHDVLSWSFASKLPDDSTAEPLDLASYLVRNVL
Question: Which “binding of biotinylated lectin to Oc12” value (Oc12) does the source give for B2 here?
Answer: binds very weakly
